Test results: ChEMBL document CHEMBL1201862, “PubChem BioAssay data set” (2004)
Active and inactive are the calls of the source.

What was measured:
Protein RecA = target: T1, Protein RecA (Mycobacterium tuberculosis, UniProt P9WHJ3); assay: Fluorescence Cell-Free Homogeneous Dose Retest to Identify Inhibitors of RecA-Intein Splicing Activity. [Related pubchem assays (depositor defined):AID2097, AID2223, AID489010, AID492950]; assay type: functional
T1 sequence (P9WHJ3 whole entry): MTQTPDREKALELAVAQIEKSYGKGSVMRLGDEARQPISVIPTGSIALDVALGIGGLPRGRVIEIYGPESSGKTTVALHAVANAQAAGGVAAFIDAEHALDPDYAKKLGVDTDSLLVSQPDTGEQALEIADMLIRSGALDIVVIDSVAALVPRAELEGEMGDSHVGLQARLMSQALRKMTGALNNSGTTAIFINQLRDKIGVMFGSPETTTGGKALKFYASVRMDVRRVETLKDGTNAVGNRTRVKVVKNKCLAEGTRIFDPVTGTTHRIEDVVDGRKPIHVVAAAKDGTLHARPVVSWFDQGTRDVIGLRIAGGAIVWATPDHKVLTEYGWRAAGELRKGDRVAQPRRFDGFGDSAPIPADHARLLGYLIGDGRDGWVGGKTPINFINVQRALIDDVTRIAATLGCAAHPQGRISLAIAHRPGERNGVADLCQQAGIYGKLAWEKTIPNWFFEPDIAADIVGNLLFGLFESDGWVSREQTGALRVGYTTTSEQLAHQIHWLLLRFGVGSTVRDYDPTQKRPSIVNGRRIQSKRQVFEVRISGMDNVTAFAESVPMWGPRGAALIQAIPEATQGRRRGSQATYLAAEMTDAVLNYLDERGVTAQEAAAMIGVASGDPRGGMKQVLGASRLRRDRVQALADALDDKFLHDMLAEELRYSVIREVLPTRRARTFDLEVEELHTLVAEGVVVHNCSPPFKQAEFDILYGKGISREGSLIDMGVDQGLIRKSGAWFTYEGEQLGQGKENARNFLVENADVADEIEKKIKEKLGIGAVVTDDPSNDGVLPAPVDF

[1] = target: T2, Replicative DNA helicase DnaB (Mycobacterium tuberculosis, UniProt P9WMR3); assay: DnaB intein splicing inhibitors, dose response, biochemical, cell-free fluorescence (AID 449749); assay type: functional
T2 sequence (P9WMR3 whole entry): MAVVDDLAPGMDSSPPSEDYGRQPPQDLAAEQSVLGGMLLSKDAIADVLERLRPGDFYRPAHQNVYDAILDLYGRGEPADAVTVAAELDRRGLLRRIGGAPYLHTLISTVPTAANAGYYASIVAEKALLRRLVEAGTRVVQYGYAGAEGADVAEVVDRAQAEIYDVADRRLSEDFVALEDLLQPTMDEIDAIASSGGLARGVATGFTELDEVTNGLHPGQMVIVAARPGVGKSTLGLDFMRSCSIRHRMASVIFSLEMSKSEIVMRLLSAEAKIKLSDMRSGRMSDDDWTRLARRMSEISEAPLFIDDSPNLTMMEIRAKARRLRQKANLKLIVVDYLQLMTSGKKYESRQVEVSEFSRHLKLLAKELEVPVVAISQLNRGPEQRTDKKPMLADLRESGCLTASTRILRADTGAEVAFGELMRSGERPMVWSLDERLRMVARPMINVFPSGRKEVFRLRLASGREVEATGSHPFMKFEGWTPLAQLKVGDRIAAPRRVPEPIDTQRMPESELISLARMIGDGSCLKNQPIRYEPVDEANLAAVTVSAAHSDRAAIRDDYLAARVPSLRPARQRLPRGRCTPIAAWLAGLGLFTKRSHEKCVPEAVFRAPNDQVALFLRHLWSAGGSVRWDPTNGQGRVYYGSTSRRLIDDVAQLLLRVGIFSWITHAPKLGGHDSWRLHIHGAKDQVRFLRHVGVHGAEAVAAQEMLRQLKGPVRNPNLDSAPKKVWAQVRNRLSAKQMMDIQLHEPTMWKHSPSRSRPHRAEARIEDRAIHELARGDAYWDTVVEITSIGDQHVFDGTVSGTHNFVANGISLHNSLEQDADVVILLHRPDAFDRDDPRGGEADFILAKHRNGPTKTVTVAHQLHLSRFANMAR

[2] = target: T3, Sentrin-specific protease 7 (Homo sapiens, UniProt Q9BQF6); assay type: functional;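 note: Luminescence-based dose-response confirmation of ultra-high-throughput screening hits, measuring inhibition of SENP7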
T3 sequence (Q9BQF6 whole entry): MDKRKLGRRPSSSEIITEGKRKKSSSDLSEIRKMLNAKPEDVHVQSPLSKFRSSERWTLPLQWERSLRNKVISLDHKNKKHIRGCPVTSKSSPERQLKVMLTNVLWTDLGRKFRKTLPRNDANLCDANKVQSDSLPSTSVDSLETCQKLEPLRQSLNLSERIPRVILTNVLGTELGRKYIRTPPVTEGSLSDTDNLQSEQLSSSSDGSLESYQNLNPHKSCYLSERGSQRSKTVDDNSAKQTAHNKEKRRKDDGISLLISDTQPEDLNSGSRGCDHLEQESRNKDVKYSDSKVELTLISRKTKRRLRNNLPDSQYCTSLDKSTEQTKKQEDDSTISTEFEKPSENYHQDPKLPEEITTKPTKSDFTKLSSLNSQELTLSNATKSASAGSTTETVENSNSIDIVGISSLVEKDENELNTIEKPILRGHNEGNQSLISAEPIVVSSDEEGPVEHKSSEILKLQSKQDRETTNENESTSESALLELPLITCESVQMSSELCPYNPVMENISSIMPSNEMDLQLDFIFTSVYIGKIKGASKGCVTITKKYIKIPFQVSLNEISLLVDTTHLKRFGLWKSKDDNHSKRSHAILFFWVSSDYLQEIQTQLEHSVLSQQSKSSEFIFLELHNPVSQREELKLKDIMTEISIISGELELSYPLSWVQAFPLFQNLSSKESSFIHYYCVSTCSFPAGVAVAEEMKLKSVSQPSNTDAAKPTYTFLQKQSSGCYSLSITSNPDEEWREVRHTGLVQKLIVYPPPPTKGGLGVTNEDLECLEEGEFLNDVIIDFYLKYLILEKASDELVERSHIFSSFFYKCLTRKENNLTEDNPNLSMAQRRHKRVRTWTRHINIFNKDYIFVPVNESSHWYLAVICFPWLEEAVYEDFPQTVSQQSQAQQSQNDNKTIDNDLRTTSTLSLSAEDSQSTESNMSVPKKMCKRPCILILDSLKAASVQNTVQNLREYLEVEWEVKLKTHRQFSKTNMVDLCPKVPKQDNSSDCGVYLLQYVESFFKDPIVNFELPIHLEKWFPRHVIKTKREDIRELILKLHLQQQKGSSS

Streptococcus = assay: Group A Streptococcus viability loss, dose response, counter-screen for streptokinase expression inhibitor project, luminescence, BacTiterGlo (AID 1915); assay type: functional, organism-based;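 note: potency for reduction of bacterial viability or growth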

| Compound | EC50 (Protein RecA) | AC50 [1] | IC50 [2] | EC50 (Streptococcus) |
| --- | --- | --- | --- | --- |
| O=C1C(Cl)=C(NCc2cccnc2)C(=O)c2ccccc21 | 2.17 µM (active) | 4.75 µM (active) | – | – |
| Nc1ccc(Br)c2cccnc12 | – | – | 9.77 µM (active) | – |
| CN(C)c1ncc(C2=C(Cl)C(=O)C(N3CCCC3)=C(Cl)C2=O)s1 | 3.81 µM (active) | > 380 µM (inactive) | – | 135 µM (active) |
| Cc1ccc(C(=O)c2c(C)oc3c2C(=O)C(=O)c2ccccc2-3)cc1 | – | – | 6.7 µM (active) | 13.6 µM (active) |
| Cc1cnc(NC(=O)c2sc3ccccc3c2Cl)s1 | – | – | 2.6 µM (active) | – |
| O=C1C(O)=C/C(=N\c2ccccc2O)c2ccccc21 | 12.3 µM (active) | 27.4 µM (active) | 5.84 µM (active) | > 150 µM (not active) |
| Cc1ccc(Nc2cc(C)nn2-c2nc(C)cc(O)n2)cc1 | 61.4 µM (active) | 13.6 µM (active) | – | 0.065 µM (active) |
